Literature values, collected in patent publication US20080153785A1, “Pharmaceutical Compositions Containing Biophosphonate for Improving Oral Absorption” (CHONG KUN DANG PHARMACEUTICAL CORP., priority 2005, published 2008).

Details: long-term treatment, normally taken

SMILES: NCCCC(O)(P(=O)(O)O)P(=O)(O)O [alendronate, 4-Amino-1-hydroxybutylidene-1,1-biphosphonate]
- incidence of heartburn or epigastric pain: about 36 % of patients
